Laboratory results: PubChem BioAssay AID248 (DTP/NCI, 2004)
Where “and” joins values, the source holds several entries; their conditions need not be identical. Equal values may be shown once. Inconclusive results and toxic doses are left out. Cut-off read from the data, not from the text of the source: active = T/C of 150% or more; inactive = T/C below 125%.

System: L1210 leukemia ip in BDF1 mice, survival T/C
Test: NCI In Vivo Anticancer Drug Screen. Data for tumor model L1210 Leukemia (intraperitoneal) in B6D2F1 (BDF1) mice
Details: endpoint: mean survival time, higher = longer survival
Outline: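 Value reflects the ratio of survival in compound-treated mice to survival in vehicle-treated controls, with both groups carrying the same transplanted tumor.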

[1] = dose: 50.0 mg/kg/injection, schedule: Q01DX009 (ip), vehicle: saline with Tween-80
[2] = dose: 100.0 mg/kg/injection, schedule: Q01DX009 (ip), vehicle: saline with Tween-80
[3] = dose: 100.0 mg/kg/injection, schedule: Q04DX002 (ip), vehicle: Klucel (hydroxypropylcellulose) (HPC)
[4] = dose: 100.0 mg/kg/injection, schedule: Q04DX003 (ip), vehicle: Klucel (hydroxypropylcellulose) (HPC)
[5] = dose: 200.0 mg/kg/injection, schedule: Q04DX003 (ip), vehicle: Klucel (hydroxypropylcellulose) (HPC)
[6] = dose: 100.0 mg/kg/injection, schedule: Q01DX009 (ip), vehicle: Klucel (hydroxypropylcellulose) (HPC)
[7] = dose: 200.0 mg/kg/injection, schedule: Q01DX009 (ip), vehicle: Klucel (hydroxypropylcellulose) (HPC)
[8] = dose: 400.0 mg/kg/injection, schedule: Q01DX009 (ip), vehicle: Klucel (hydroxypropylcellulose) (HPC)
[9] = dose: 400.0 mg/kg/injection, schedule: Q04DX003 (ip), vehicle: Klucel (hydroxypropylcellulose) (HPC)
[10] = dose: 200.0 mg/kg/injection, schedule: Q01DX009 (ip), vehicle: saline with Tween-80
[11] = dose: 400.0 mg/kg/injection, schedule: Q01DX009 (ip), vehicle: saline with Tween-80
[12] = dose: 100.0 mg/kg/injection, schedule: Q04DX002 (ip), vehicle: saline with Tween-80
[13] = dose: 200.0 mg/kg/injection, schedule: Q04DX002 (ip), vehicle: saline with Tween-80
[14] = dose: 400.0 mg/kg/injection, schedule: Q04DX002 (ip), vehicle: saline with Tween-80
[15] = dose: 100.0 mg/kg/injection, schedule: Q01DX001 (ip), vehicle: saline
[16] = dose: 200.0 mg/kg/injection, schedule: Q01DX001 (ip), vehicle: saline
[17] = dose: 400.0 mg/kg/injection, schedule: Q01DX001 (ip), vehicle: saline
[18] = dose: 100.0 mg/kg/injection, schedule: Q01DX009 (ip), vehicle: saline
[19] = dose: 100.0 mg/kg/injection, schedule: Q04DX003 (ip), vehicle: saline with Tween-80
[20] = dose: 100.0 mg/kg/injection, schedule: Q04DX003 (ip), vehicle: saline
[21] = dose: 200.0 mg/kg/injection, schedule: Q04DX003 (ip), vehicle: saline with Tween-80
[22] = dose: 200.0 mg/kg/injection, schedule: Q04DX003 (ip), vehicle: saline
[23] = dose: 400.0 mg/kg/injection, schedule: Q04DX003 (ip), vehicle: saline with Tween-80

Measured: T/C

CC(C)/C=N\NC(=O)c1ccc[n+](C)c1
inactive: [1] 100 % of control | [2] 92 % of control

C=C1c2ccccc2N(C)C1(COc1ccc(Br)cc1)OC(=O)c1cccc(Cl)c1 (configuration not stated)
inactive: [3] 95 % of control | dose: 200.0 mg/kg/injection, schedule: Q04DX002 (ip), vehicle: Klucel (hydroxypropylcellulose) (HPC) 95 % of control | dose: 400.0 mg/kg/injection, schedule: Q04DX002 (ip), vehicle: Klucel (hydroxypropylcellulose) (HPC) 98 % of control

c1ccc2c[n+](CCc3c[nH]c4ccccc34)ccc2c1
inactive: [3] 100 % of control | [4] 96 % of control | [5] 104 % of control

O=C(Nc1ccc(Cl)cc1)c1ccc([N+](=O)[O-])cc1
inactive: dose: 100.0 mg/kg/injection, schedule: Q04DX002 (ip), vehicle: gum acacia 106 % of control | dose: 200.0 mg/kg/injection, schedule: Q04DX002 (ip), vehicle: gum acacia 102 % of control | dose: 400.0 mg/kg/injection, schedule: Q04DX002 (ip), vehicle: gum acacia 98 % of control

CCCCCCCCCCCCCCCCOc1ccc(S(=O)(=O)Nc2cc(C(=O)OC)cc(C(=O)OC)c2)cc1[N+](=O)[O-]
inactive: [6] 98 % of control | [4] 93 % of control | [7] 97 % of control | [5] 95 % of control | [8] 92 % of control | [9] 91 % of control

CCOc1cc(-c2nc(-c3ccc(N=Cc4ccc(N(CCCOS(C)(=O)=O)CCCOS(C)(=O)=O)cc4)cc3)cs2)ccc1OCc1ccccc1
inactive: [2] 92 % of control | [10] 94 % of control | [11] 92 % of control

O=C(O)/C(=C\c1ccccc1)c1cccc2ccccc12
inactive: [6] 100 % of control | [7] 98 % of control

O=C(NCCO)Nc1cccc2c1CCCC2
inactive: [12] 108 % of control | [13] 104 % of control | [14] 87 % of control

NNc1ccc(CC(=O)O)cc1
inactive: [15] 98 % of control | [16] 93 % of control | [17] 98 % of control

CCOC(=O)c1c(/N=C/c2cc(Br)ccc2O)sc2c1CCCC2
inactive: [12] 109 % of control | [13] 102 % of control | [14] 98 % of control

CCOc1ccc(N)c(S)c1
inactive: dose: 13.3 mg/kg/injection, schedule: Q01DX Z (ip), vehicle: methylcellulose (MC) 105 % of control | dose: 20.0 mg/kg/injection, schedule: Q01DX Z (ip), vehicle: methylcellulose (MC) 97 % of control | dose: 30.0 mg/kg/injection, schedule: Q01DX Z (ip), vehicle: methylcellulose (MC) 95 % of control

O=C1OC2CC1(O)CC(O)C2O (configuration not stated)
inactive: [1] 92 % of control | [2] 94 % of control | [10] 92 % of control

NC(=O)Nc1n[nH]c(-c2ccccc2)n1
inactive: [18] 90 % of control

COc1ccc(-c2sc(/N=C/c3cc(OC)c(OC)c(OC)c3)c(C#N)c2C)cc1OC
inactive: [2] 98 % of control and 103 % of control | [12] 93 % of control and 88 % of control | [10] 100 % of control and 88 % of control | [13] 93 % of control | [11] 92 % of control and 87 % of control | [14] 94 % of control and 104 % of control

Cc1ccc(OCC(=O)Nc2ccc3c(c2)C(=O)c2ccccc2C3=O)c(C)c1
inactive: dose: 100.0 mg/kg/injection, schedule: Q01DX001 (ip), vehicle: carboxymethylcellulose (CMC) 101 % of control | dose: 200.0 mg/kg/injection, schedule: Q01DX001 (ip), vehicle: carboxymethylcellulose (CMC) 98 % of control | dose: 400.0 mg/kg/injection, schedule: Q01DX001 (ip), vehicle: carboxymethylcellulose (CMC) 95 % of control

O=c1[nH][nH]c(=O)c2[nH]cnc12
inactive: [6] 107 % of control | [4] 104 % of control | [7] 103 % of control | [5] 104 % of control | [8] 117 % of control | [9] 117 % of control

COc1ccc(Cl)cc1/C=C/C=O
inactive: [15] 91 % of control | [16] 92 % of control | [17] 102 % of control

O=S(=O)(Cl)c1cc(Cl)ccc1Cl
inactive: dose: 25.0 mg/kg/injection, schedule: Q01DX009 (ip), vehicle: Klucel (hydroxypropylcellulose) (HPC) 95 % of control | dose: 50.0 mg/kg/injection, schedule: Q01DX009 (ip), vehicle: Klucel (hydroxypropylcellulose) (HPC) 98 % of control | [6] 97 % of control

CCn1c(/C=N/NC(N)=S)cc2ccccc21
inactive: dose: 50.0 mg/kg/injection, schedule: Q01DX001 (ip), vehicle: other 104 % of control | dose: 100.0 mg/kg/injection, schedule: Q01DX001 (ip), vehicle: other 109 % of control | dose: 200.0 mg/kg/injection, schedule: Q01DX001 (ip), vehicle: other 104 % of control | dose: 400.0 mg/kg/injection, schedule: Q01DX001 (ip), vehicle: other 104 % of control

Oc1ccc(-c2nc3ccccc3nc2-c2ccc(O)cc2O)c(O)c1
inactive: [15] 96 % of control | [16] 93 % of control | [17] 96 % of control

O=C(Cc1ccccc1)NC(CSSCC(NC(=O)Cc1ccccc1)C(=O)O)C(=O)O (configuration not stated)
inactive: dose: 88.0 mg/kg/injection, schedule: Q01DX009 (ip), vehicle: Klucel (hydroxypropylcellulose) (HPC) 93 % of control | [18] 100 % of control | [19] 95 % of control | [20] 105 % of control and 97 % of control | dose: 132.0 mg/kg/injection, schedule: Q01DX009 (ip), vehicle: Klucel (hydroxypropylcellulose) (HPC) 90 % of control | [7] 100 % of control | [21] 98 % of control | [22] 107 % of control and 100 % of control | dose: 400.0 mg/kg/injection, schedule: Q01DX009 (ip), vehicle: saline 103 % of control | [23] 98 % of control | dose: 400.0 mg/kg/injection, schedule: Q04DX003 (ip), vehicle: saline 96 % of control and 100 % of control

COc1cccc(C(=O)O)c1C(=O)c1ccc(C)cc1O
inactive: [19] 100 % of control | [21] 97 % of control | [23] 90 % of control

CC1CN1P(=O)(OCCCl)N1CC1C (configuration not stated)
inactive: dose: 20.0 mg/kg/injection, schedule: Q01DX Z (ip), vehicle: saline 97 % of control | dose: 40.0 mg/kg/injection, schedule: Q01DX Z (ip), vehicle: saline 100 % of control | dose: 80.0 mg/kg/injection, schedule: Q01DX Z (ip), vehicle: saline 108 % of control | dose: 160.0 mg/kg/injection, schedule: Q01DX Z (ip), vehicle: saline 117 % of control

COc1c2occc2c(OC)c2c(=O)cc(/C=C/c3cccnc3)oc12
inactive: [15] 97 % of control | [16] 101 % of control | [17] 101 % of control

CCOC(=O)c1cc(N)c[nH]1
inactive: dose: 50.0 mg/kg/injection, schedule: Q01DX009 (ip), vehicle: saline 109 % of control | [18] 96 % of control | [20] 89 % of control | dose: 200.0 mg/kg/injection, schedule: Q01DX009 (ip), vehicle: saline 96 % of control | [22] 94 % of control
